Laboratory results as given in the Kinase Knowledgebase extract (Sharma et al. 2016).
pKi: −log10 of the molar value.

Molecular target: CDK2 (UniProt P24941)
Assay: Enzyme Assay
Conditions: for inhibition: concentration not given here

O=C1NC(=O)C2=C1c1cn(c3ncccc13)CCCC1=CC=C(CCCn3cc2c2cccnc23)S1
inhibition: 20%

O=C1CCCCn2cc(c3cccnc32)C2=C(C(=O)NC2=O)c2cn(c3ncccc23)CCCC1
pKi: 5.91
inhibition: 50%

O=C1NC(=O)C2=C1c1cn(c3ncccc13)CCCCC(O)CCCCn1cc2c2cccnc21
pKi: 6.17
inhibition: 57%
